Laboratory results reported in article PMC4420714 (Peptides, 2015).
Entries after “also recorded” stand apart in the source; their conditions may differ. Like-named read-outs stand apart in the source and are kept apart here.

Key:
PAC1-R [1] = biological target: T1, PAC1-R (Homo sapiens, UniProt P41586); test: [3H]cAMP generation in PAC1-R cells; type: cell-based
T1 sequence (P41586 21-468): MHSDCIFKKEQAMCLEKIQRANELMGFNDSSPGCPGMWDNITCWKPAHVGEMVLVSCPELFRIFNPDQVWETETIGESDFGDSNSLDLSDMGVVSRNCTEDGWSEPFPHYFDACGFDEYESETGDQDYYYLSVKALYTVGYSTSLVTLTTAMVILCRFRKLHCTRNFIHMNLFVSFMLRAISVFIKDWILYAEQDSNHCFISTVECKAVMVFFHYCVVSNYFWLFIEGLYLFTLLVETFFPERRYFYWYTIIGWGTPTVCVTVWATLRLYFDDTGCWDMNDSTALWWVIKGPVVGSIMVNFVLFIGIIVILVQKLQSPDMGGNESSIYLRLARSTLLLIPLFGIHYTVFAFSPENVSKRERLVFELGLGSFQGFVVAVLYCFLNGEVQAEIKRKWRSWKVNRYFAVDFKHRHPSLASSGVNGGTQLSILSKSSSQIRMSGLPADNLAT

VPAC2-R [2] = biological target: T2, VPAC2-R (Homo sapiens, UniProt P41587); test: [3H]cAMP generation in VPAC2-R/PANC-1 cells; type: cell-based; conditions: for [3H]cAMP VPAC2-R/PANC-1 % max (agonist class): VPAC2-R/PANC-1 cells, relative to PACAP38, up to 1 µM
T2 sequence (P41587 24-438): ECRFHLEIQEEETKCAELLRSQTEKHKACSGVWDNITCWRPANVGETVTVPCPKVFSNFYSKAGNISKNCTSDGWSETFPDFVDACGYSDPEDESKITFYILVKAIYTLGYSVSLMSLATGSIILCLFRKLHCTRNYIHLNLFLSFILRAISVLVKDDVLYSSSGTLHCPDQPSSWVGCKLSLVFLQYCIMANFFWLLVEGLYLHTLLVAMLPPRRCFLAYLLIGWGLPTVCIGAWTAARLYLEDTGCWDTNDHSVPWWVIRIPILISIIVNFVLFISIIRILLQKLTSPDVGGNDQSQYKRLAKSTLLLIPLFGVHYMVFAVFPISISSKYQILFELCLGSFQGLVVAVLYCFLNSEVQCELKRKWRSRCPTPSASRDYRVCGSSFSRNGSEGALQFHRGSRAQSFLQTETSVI

VPAC1-R [3] = biological target: T3, VPAC1-R (Homo sapiens, UniProt P32241); test: Binding of 125I-VIP to VPAC1-R/PANC-1 cells
T3 sequence (P32241 31-457): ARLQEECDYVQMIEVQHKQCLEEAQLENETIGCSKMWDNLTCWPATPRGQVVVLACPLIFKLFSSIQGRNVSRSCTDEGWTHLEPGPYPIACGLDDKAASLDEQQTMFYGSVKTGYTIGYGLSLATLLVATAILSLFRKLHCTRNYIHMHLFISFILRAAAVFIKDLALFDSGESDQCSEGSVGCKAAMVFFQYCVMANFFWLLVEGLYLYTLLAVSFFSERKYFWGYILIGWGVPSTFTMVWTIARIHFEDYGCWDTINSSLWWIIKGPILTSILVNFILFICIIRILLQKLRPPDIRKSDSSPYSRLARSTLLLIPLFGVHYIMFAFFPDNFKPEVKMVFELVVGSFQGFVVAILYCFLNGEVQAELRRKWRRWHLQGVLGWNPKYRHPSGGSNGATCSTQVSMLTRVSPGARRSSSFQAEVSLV

PAC1-R [4] = biological target: T1, PAC1-R; test: Binding of 125I-PACAP27 to PAC1-R stably transfected NIH 3T3 cells
VPAC1-R [5] = biological target: T3, VPAC1-R; test: [3H]cAMP generation in VPAC1-R/PANC-1 cells; type: cell-based; conditions: for [3H]cAMP VPAC1-R/PANC-1 % max (agonist class): relative to PACAP38, up to 1 µM
PAC1-R [6] = biological target: T1, PAC1-R; test: [3H]Inositol phosphate generation; type: cell-based; conditions: PAC1-R cells, IP EC50/cAMP EC50
VPAC2-R [7] = biological target: T2, VPAC2-R; test: Binding of 125I-PACAP27 to VPAC2-R/PANC-1 cells; conditions: ratio of binding IC50, analog vs native parent peptide
VPAC1-R [8] = biological target: T3, VPAC1-R; test: [3H]cAMP generation in T47D cells; type: cell-based; conditions: for [3H]cAMP T47D % max (agonist class): relative to PACAP38, up to 1 µM
PAC1-R [9] = biological target: T1, PAC1-R; conditions: PAC1-R over VPAC1-R; ref [13]; cited from earlier work
[10] = ratio of binding IC50, analog vs native parent peptide
[11] = binding IC50 ratio, VPAC1-R preferring

Substance | decrease in affinity for VPAC2-R/PANC-1 cells compared to native PACAP38 (or PACAP27, VIP) (VPAC2-R [7]) | [3H]cAMP T47D % max (agonist class) (VPAC1-R [8]) | decrease in affinity for VPAC1-R/PANC-1 cells compared to native PACAP38 (or PACAP27, VIP) (VPAC1-R [3]; [10]) | decrease in affinity for PAC1-R cells compared to native PACAP38 (or PACAP27) (PAC1-R [4]) | [3H]cAMP VPAC2-R/PANC-1 % max (agonist class) (VPAC2-R [2]) | [3H]cAMP VPAC1-R/PANC-1 % max (agonist class) (VPAC1-R [5]; VPAC1-R/PANC-1 cells) | further results
PACAP27 [reference compound] |  |  |  | 10 fold |  |  | coupling ratio (IC50-binding affinity/EC50-cAMP generation), PAC1-R cells (PAC1-R [1]): 94 fold; maximal increase in cAMP, PAC1-R cells (PAC1-R [1]): 4.1 ± 1.5 fold; coupling ratio (IC50-binding affinity/EC50-cAMP generation), VPAC2-R/PANC-1 cells (VPAC2-R [2]): 4.8 fold; maximal increase in cAMP, VPAC2-R/PANC-1 cells (VPAC2-R [2]; over control): 6.5 ± 2.0 fold; higher affinity than PACAP38 for VPAC1-R/PANC-1 cells (VPAC1-R [3]; binding IC50 ratio): 6 fold; higher affinity (selectivity) for PAC1-R cells over VPAC2-R/PANC-1 cells (PAC1-R [4]): 2 fold; lower affinity for PAC1-R cells than VPAC1-R/PANC-1 cells (PAC1-R [4]): 12 fold; coupling ratio (IC50-binding affinity/EC50-cAMP generation), VPAC1-R/PANC-1 cells (VPAC1-R [5]): 1.2 fold; maximal increase in cAMP, VPAC1-R/PANC-1 cells (VPAC1-R [5]; over control): 5.0 ± 0.7 fold
PACAP38 [reference compound] |  |  |  |  |  |  | less potent at stimulating [3H]IP (PLC) than cAMP (PAC1-R [6]): 19 fold; maximal increase in cAMP, PAC1-R cells (PAC1-R [1]): 4.1 ± 1.5 fold; maximal increase in cAMP, VPAC2-R/PANC-1 cells (VPAC2-R [2]; over control): 6.5 ± 2.0 fold; coupling ratio (IC50-binding affinity/EC50-cAMP generation), VPAC1-R/PANC-1 cells (VPAC1-R [5]): 2.5 fold; maximal increase in cAMP, VPAC1-R/PANC-1 cells (VPAC1-R [5]): 5.0 ± 0.7 fold
[Aib^2]PACAP38 [Peptide P15] |  |  |  | 11–30 fold |  |  | lower affinity for PAC1-R cells than VPAC2-R/PANC-1 cells (PAC1-R [4]): 2–9 fold
[D-Ser^2]PACAP27 [Peptide P4] | 7 fold | pAg (90) | 37 fold | 15–25 fold |  |  | higher potency for PAC1-R cells compared to VPAC1-R/PANC-1 cells (PAC1-R [1]): 2-to-5 fold; higher potency for PAC1-R cells compared to VPAC2-R/PANC-1 cells (PAC1-R [1]): 12–140 fold; [3H]cAMP T47D % max of partial agonist (VPAC1-R [8]; partial agonist maximum): pAg (90) % max; lower affinity for PAC1-R cells than VPAC1-R/PANC-1 cells (PAC1-R [4]): 6–10 fold; lower affinity for PAC1-R cells than VPAC2-R/PANC-1 cells (PAC1-R [4]): 2–9 fold; PAC1-selectivity reported in a previous study (PAC1-R [9]): 3 fold
[D-Ser^2]PACAP38 [Peptide P16] | 15–500 fold |  |  | 11–30 fold |  |  | higher potency for PAC1-R cells compared to VPAC1-R/PANC-1 cells (PAC1-R [1]): 2-to-5 fold; higher potency for PAC1-R cells compared to VPAC2-R/PANC-1 cells (PAC1-R [1]): 12–140 fold; decrease in affinity for VPAC1-R/PANC-1 cells compared to native PACAP38 (or PACAP27, VIP) (VPAC1-R [3]): 100–500 fold
vasoactive intestinal peptide [VIP, reference compound] |  |  |  |  |  |  | [3H]cAMP PAC1-R % max (agonist class) (PAC1-R [1]): No Act; less potent than PACAP38 and PACAP27 at stimulating PAC1-R cells (PAC1-R [1]; cAMP generation): > 800 fold; maximal increase in cAMP, PAC1-R cells (PAC1-R [1]; over control): 4.1 ± 1.5 fold; maximal increase in cAMP, VPAC2-R/PANC-1 cells (VPAC2-R [2]): 6.5 ± 2.0 fold; lower affinity for PAC1-R cells than VPAC1-R/PANC-1 cells (PAC1-R [4]; [11]): > 1,000 fold; lower affinity for PAC1-R cells than VPAC2-R/PANC-1 cells (PAC1-R [4]; binding IC50 ratio, VPAC2-R preferring): > 400 fold; maximal increase in cAMP, VPAC1-R/PANC-1 cells (VPAC1-R [5]): 5.0 ± 0.7 fold

Second part, led by results:

decrease in affinity for VPAC2-R/PANC-1 cells compared to native PACAP38 (or PACAP27, VIP) (VPAC2-R [7]) | [3H]cAMP T47D % max (agonist class) (VPAC1-R [8]) | decrease in affinity for VPAC1-R/PANC-1 cells compared to native PACAP38 (or PACAP27, VIP) (VPAC1-R [3]; [10]) | Substance | decrease in affinity for PAC1-R cells compared to native PACAP38 (or PACAP27) (PAC1-R [4]) | [3H]cAMP VPAC2-R/PANC-1 % max (agonist class) (VPAC2-R [2]) | [3H]cAMP VPAC1-R/PANC-1 % max (agonist class) (VPAC1-R [5]; VPAC1-R/PANC-1 cells) | further results
6–132 fold | No Act | 100–500 fold | [Me-Lys^15]PACAP27 [Peptide P2] |  | Ag (1 µM, 19) | Ag (1 µM, 68) | 
 | No Act | > 1,000 fold | [N-Ac-His^1,Pip^3,Aib^16,Ala^17]PACAP27 [Peptide P8] |  | Ag (1 µM, 13) | partial agonists; also recorded: pAg (24) | [3H]cAMP VPAC1-R/PANC-1 % max of partial agonist (VPAC1-R [5]; VPAC1-R/PANC-1 cells, partial agonist maximum): pAg (24) % max
 | No Act | > 1,000 fold | [Pip^3,Aib^16,Ala^17]PACAP27 [Peptide P7] |  | no agonist activity; also recorded: No Act | no agonist activity; also recorded: No Act | 
6–132 fold | Ag (1 µM, 16) | 100–500 fold | [Pro^3]PACAP27 [Peptide P5] |  | no agonist activity; also recorded: No Act | Ag (1 µM, 23) | [3H]cAMP T47D % max, agonist activity at 1 µM, still increasing (VPAC1-R [8]): Ag (1 µM, 16) % max
> 500 fold | Ag (1 µM, 68) | > 500 fold | [Pro^3]VIP [Peptide P50] |  | Ag (1 µM, 52) | Ag (1 µM, 68) | [3H]cAMP PAC1-R % max (agonist class) (PAC1-R [1]; PAC1-R cells, relative to maximal stimulation by PACAP38, up to 1 µM): no agonist activity; also recorded: No Act; [3H]cAMP T47D % max, agonist activity at 1 µM, still increasing (VPAC1-R [8]): Ag (1 µM, 68) % max; lower affinity for PAC1-R cells than VPAC1-R/PANC-1 cells (PAC1-R [4]; [11]): 6–10 fold
6–132 fold | Ag (1 µM, 69) | 100–500 fold | [Sar^3]PACAP27 [Peptide P6] |  | no agonist activity; also recorded: No Act |  | [3H]cAMP T47D % max, agonist activity at 1 µM, still increasing (VPAC1-R [8]): Ag (1 µM, 69) % max
6–132 fold | No Act | 100–500 fold | [Sar^4]PACAP27 [Peptide P22] |  | no agonist activity; also recorded: No Act | no agonist activity; also recorded: No Act | 
